These results are taken from paper PMC3076090 (Pharmaceutical research, 2010).

Like-named read-outs stand apart in the source and are kept apart here.

Series [1] deals with blood-brain barrier. Particulars: pH 7.4; S = 100 cm^2·g^−1; rat; cited from earlier work.
For series [2] the following is noted: measured octanol-water partition coefficients from multiple sources; cited from earlier work.
Series [3] deals with blood-brain barrier. Kind of series: in situ rat brain perfusion, pH-dependent. Particulars: for Kin: 30-s perfusion; for PcS (pH-CRE): new pH-CRE method; for log(Kin/S) (= log Pe): S = 100 cm^2·g^−1; for PcS (CRE): traditional Crone-Renkin equation; for Fpf (cerebrovascular flow velocity refined from the compound's Kin-pH data): weighted nonlinear regression, Eq. 4.
The conditions of series [4]: intrinsic PAMPA permeability, 10% porcine brain extract lipids in alkane; cited from earlier work. In general terms: PAMPA measures passive passage across an artificial lipid membrane.
Series [5] is described as follows: pKa determination at 37°C. The series is classed as physicochemical.
Series [6] concerns blood-brain barrier. Particulars: typical values; cited from earlier work.
In series [7] the test system is blood-brain barrier. To be noted: male, Sprague-Dawley, rat, 30 s.
Series [8] relates to blood-brain barrier. To be noted: mouse in situ brain perfusion; cited from earlier work.

The term pKa denotes the pH at which an ionisable group is half protonated. Take `CNCC[C@@H](Oc1ccccc1C)c1ccccc1` [Atomoxetine]: the “log(Kin/S) (= log Pe)” value is −3.49 ± 0.12 cm·s^−1 in the series on blood-brain barrier [1]; −3.59 ± 0.16 cm·s^−1 with blood-brain barrier [3] (pH 8.0, this work); −3.50 ± 0.20 cm·s^−1 in the series on blood-brain barrier [3] (pH 8.5, this work). Moreover, the “log POCT” value in series [2] is recorded as 3.3. Moreover, the Kin in the series with blood-brain barrier [3] (dosing group B-3, pH 8.0, 10 mM bicine in KRB) was found to be 0.026 ± 0.010 mL/g/s; with blood-brain barrier [3] (dosing group B-4, pH 8.5, 10 mM bicine in KRB, no CsA), 0.032 ± 0.015 mL/g/s. The results for the “PcS (pH-CRE)” value in the series on blood-brain barrier [3] (pH 7.4), with blood-brain barrier [3] (pH 8.0) and in the series with blood-brain barrier [3] (pH 8.5) were 805, 3134 and 9295, respectively. The “PcS (CRE)” value in the series with blood-brain barrier [3] (pH 8.0) is listed as 549. Also, in the series with blood-brain barrier [3], the “Fpf (cerebrovascular flow velocity refined from the compound's Kin-pH data)” value (“Fpf” for short) worked out at 0.031 ± 0.002 mL.g^−1.s^−1. Moreover, in series [4], the “log Po^PAMPA−BBB” value is given as −1.8. Further, the pKa in series [5] is 9.5 ± 0.05.

Consider inulin, for which the “in vivo Pc (paracellular)” value in the series on blood-brain barrier [6] is listed as ~0.04 10^−6 cm·s^−1.

Take `OC[C@H]1O[C@@](CO)(O[C@H]2O[C@H](CO)[C@@H](O)[C@H](O)[C@H]2O)[C@@H](O)[C@@H]1O` [sucrose]: the “in vivo Pc (paracellular)” value in the series on blood-brain barrier [6] is recorded as “about 0.15 10^−6 cm·s^−1”.

For the molecule `Cc1cc(=O)n(-c2ccccc2)n1C` [Antipyrine], in series [2], the “log POCT” value was 0.6. Moreover, in the series on blood-brain barrier [7] (in vivo, pH 5.5), the “Kin (range over dosing groups)” value was in the range of 0.0042 to 0.0082 mL/g/s. In addition, the “PcS (CRE)” value in the series on blood-brain barrier [7] (in vivo, pH 5.5) is 63; in the series with blood-brain barrier [7] (in vivo, pH 6.5), 54; in the series with blood-brain barrier [7] (in vivo, pH 7.4), 92; in the series on blood-brain barrier [7] (in vivo, pH 8) it was 80; in the series on blood-brain barrier [7] (in vivo, pH 8.5), 70. Also, the “PcS (pH-CRE)” value in the series on blood-brain barrier [7] (in vivo, pH 5.5) is on record as 77; with blood-brain barrier [7] (in vivo, pH 6.5), 77; in the series with blood-brain barrier [7] (in vivo, pH 7.4), 77; in the series on blood-brain barrier [7] (in vivo, pH 8), 77; in the series on blood-brain barrier [7] (in vivo, pH 8.5), 77. For the same molecule, the Kin in the series on blood-brain barrier [7] (in vivo, pH 7.4) is given as 82 ± 23 10^−4 mL.g^−1.s^−1. Further, in the series with blood-brain barrier [7] (po), the “log Po (intrinsic, neutral molecule, luminal permeability)” value is −4.13 ± 0.02 cm.s^−1. For the same molecule, the “log Po^PAMPA−BBB” value in series [4] is listed as −5.3.

For `CN(C)CCCN1c2ccccc2CCc2ccccc21` [Imipramine], the Kin in the series on blood-brain barrier [3] (dosing group B-5, pH 7.4, KRB) was 0.031 ± 0.021 mL/g/s; in the series with blood-brain barrier [3] (dosing group B-6, pH 8.5, 10 mM bicine in KRB), 0.032 ± 0.002 mL/g/s. Moreover, the “PcS (pH-CRE)” value in the series on blood-brain barrier [3] (pH 7.4) was 1416; in the series with blood-brain barrier [3] (pH 8.5), 15,260. Moreover, the “PcS (CRE)” value is 1437 in the series on blood-brain barrier [3] (pH 7.4) and 2150 in the series on blood-brain barrier [3] (pH 8.5). In the series on blood-brain barrier [3], the “Fpf” value was 0.032 mL.g^−1.s^−1. This molecule also gave a pKa in series [5] of 9.23 ± 0.06.

Consider `CNCCCC12CCC(c3ccccc31)c1ccccc12` [Maprotiline], for which the “log POCT” value in series [2] is 5.1. The Kin with blood-brain barrier [3] (dosing group B-7, pH 8.0, 10 mM bicine in KRB) is 0.052 ± 0.011 mL/g/s; with blood-brain barrier [3] (dosing group B-8, pH 8.5, 10 mM bicine in KRB), 0.036 ± 0.013 mL/g/s. For the same molecule, the “log(Kin/S) (= log Pe)” value is −3.48 ± 0.11 cm·s^−1 in the series on blood-brain barrier [3] (pH 7.4, this work); −3.29 ± 0.09 cm·s^−1 with blood-brain barrier [3] (pH 8.0, this work); −3.44 ± 0.15 cm·s^−1 in the series on blood-brain barrier [3] (pH 8.5, this work). Also, the results for the “PcS (pH-CRE)” value in the series on blood-brain barrier [3] (pH 7.4), with blood-brain barrier [3] (pH 8.0) and in the series with blood-brain barrier [3] (pH 8.5) were 591, 2335 and 7234, respectively. Moreover, the results for the “PcS (CRE)” value in the series with blood-brain barrier [3] (pH 7.4) and with blood-brain barrier [3] (pH 8.5) were 580 and 691, respectively. Moreover, the “Fpf” value in the series with blood-brain barrier [3] amounted to 0.047 ± 0.006 mL.g^−1.s^−1. In addition, in series [4], the “log Po^PAMPA−BBB” value was −0.6. The pKa in series [5] came to 10.01 ± 0.01.

Regarding `CN[C@H]1CC[C@@H](c2ccc(Cl)c(Cl)c2)c2ccccc21` [Sertraline], the “log POCT” value in series [2] is recorded as 4.9.

Turning to `COc1ccc2c(c1)c(CC(=O)O)c(C)n2C(=O)c1ccc(Cl)cc1` [Indomethacin], in series [2], the “log POCT” value is reported as 3.5. Further, the Kin in the series with blood-brain barrier [3] (dosing group A-1, pH 5.5, 10 mM MES in KRB) worked out at 0.032 ± 0.008 mL/g/s; in the series with blood-brain barrier [3] (dosing group A-2, pH 6.5, 10 mM MES in KRB), 0.004 ± 0.001 mL/g/s; in the series on blood-brain barrier [3] (dosing group A-2, pH 6.5, 10 mM MES in KRB, listed as indomethacin) it was 0.0042 ± 0.0008 mL/g/s. The “log(Kin/S) (= log Pe)” value in the series with blood-brain barrier [3] (pH 5.5, this work) was −3.50 ± 0.10 cm·s^−1; with blood-brain barrier [3] (pH 6.5, this work (sertraline with 5 µM CsA)), −4.39 ± 0.08 cm·s^−1. Besides, the “PcS (pH-CRE)” value amounted to 399 in the series on blood-brain barrier [3] (pH 5.5) and 42 with blood-brain barrier [3] (pH 6.5). Besides, the “PcS (CRE)” value turned out to be 400 with blood-brain barrier [3] (pH 5.5) and 42 with blood-brain barrier [3] (pH 6.5). Also, the “Fpf” value in the series with blood-brain barrier [3] is reported as 0.081 mL.g^−1.s^−1. For the same molecule, the “log Po^PAMPA−BBB” value in series [4] is on record as −2.7.

Consider `CN(C)CCC=C1c2ccccc2CCc2ccccc21` [Amitriptyline], for which the “log(Kin/S) (= log Pe)” value is −3.27 ± 0.06 cm·s^−1 in the series on blood-brain barrier [1]; −3.35 ± 0.13 cm·s^−1 with blood-brain barrier [3] (pH 8.0, this work); −3.35 ± 0.13 cm·s^−1 in the series with blood-brain barrier [3] (pH 8.5, this work). In series [2], the “log POCT” value was 4.6. Also, the Kin was determined as 0.044 ± 0.013 mL/g/s with blood-brain barrier [3] (dosing group B-1, pH 8.0, 10 mM bicine in KRB) and 0.045 ± 0.014 mL/g/s in the series with blood-brain barrier [3] (dosing group B-2, pH 8.5, 10 mM bicine in KRB). In addition, the “PcS (pH-CRE)” value with blood-brain barrier [3] (pH 7.4) is listed as 2997; in the series on blood-brain barrier [3] (pH 8.0), 10,974; with blood-brain barrier [3] (pH 8.5), 28,173. Moreover, the “PcS (CRE)” value in the series on blood-brain barrier [3] (pH 8.0) amounted to 549. Further, the “Fpf” value in the series on blood-brain barrier [3] amounted to 0.051 ± 0.003 mL.g^−1.s^−1. For the same molecule, the “Pgp effect ratio Kin^knockout/Kin^wildtype” value in the series on blood-brain barrier [8] is 1.0. The “log Po^PAMPA−BBB” value in series [4] is −1.2. This molecule yielded a pKa in series [5] of 8.92 ± 0.1.
